Results published in PMC6563050, “Involvement of TREK-1 Channel in Cell Viability of H9c2 Rat Cardiomyoblasts Affected by Bupivacaine and Lipid Emulsion” (Cells, 2019).

Molecular target: T1, TREK-1 (TWIK-related potassium channel-1) (Rattus norvegicus, UniProt Q920B6)
T1 construct: gene Kcnk2
T1 sequence (Q920B6 1-426): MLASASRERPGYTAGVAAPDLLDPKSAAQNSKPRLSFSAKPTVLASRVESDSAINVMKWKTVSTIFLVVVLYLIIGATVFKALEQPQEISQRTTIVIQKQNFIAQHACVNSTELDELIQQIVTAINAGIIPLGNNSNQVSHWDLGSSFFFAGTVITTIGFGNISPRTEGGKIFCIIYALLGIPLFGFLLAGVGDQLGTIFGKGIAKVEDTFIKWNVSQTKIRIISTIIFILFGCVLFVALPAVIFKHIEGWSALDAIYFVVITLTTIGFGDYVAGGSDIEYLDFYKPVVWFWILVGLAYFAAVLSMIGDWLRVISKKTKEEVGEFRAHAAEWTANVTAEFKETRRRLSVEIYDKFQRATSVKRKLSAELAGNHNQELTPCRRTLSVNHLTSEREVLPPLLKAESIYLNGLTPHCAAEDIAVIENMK
Test: whole-cell and inside-out single-channel patch clamp of TREK-1 overexpressed in HEK-293 cells
Assay type: cell-based

IC50: 302 ± 17.6 µM
SMILES: CCCCN1CCCCC1C(=O)Nc1c(C)cccc1C (stereo not shown) [bupivacaine]
